From ChEMBL document CHEMBL1151501, “A benzisothiazolone class of potent, selective mechanism-based inhibitors of human leukocyte elastase” (Bioorg Med Chem Lett, 1994)

Columns and labels:
Neutrophil elastase = biological target: T1, Neutrophil elastase (Homo sapiens, UniProt P08246); experiment: Potency of Inhibition of human leukocyte elastase (HLE) expressed as apparent binding constant
T1 sequence (P08246 whole entry): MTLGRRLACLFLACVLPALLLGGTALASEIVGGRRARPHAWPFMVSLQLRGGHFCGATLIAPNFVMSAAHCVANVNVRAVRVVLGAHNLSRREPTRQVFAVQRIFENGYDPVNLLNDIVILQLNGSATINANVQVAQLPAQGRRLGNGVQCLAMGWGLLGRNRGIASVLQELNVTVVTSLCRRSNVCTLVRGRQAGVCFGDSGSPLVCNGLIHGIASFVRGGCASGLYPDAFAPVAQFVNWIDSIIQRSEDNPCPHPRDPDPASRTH

[1] = biological target: T2, Neutrophil elastase (Homo sapiens) (UniProt P08246)
T2 sequence (whole entry): T1 sequence (P08246 whole entry)
Description: Inhibition of human leukocyte elastase (HLE) expressed as K inactivation rate

[2] = biological target: T2, Neutrophil elastase (Homo sapiens); remark: listed apart in the source
Description: Inhibition of human leukocyte elastase (HLE) expressed as K reactivation rate

Structure (SMILES) | Ki (Neutrophil elastase) | K inact [1] | Kreact [2]
CC(C)(C)c1cccc2c1C(=O)N(CSc1nnnn1-c1ccccc1)S2(=O)=O | 2000 nM |  | 
CC(C)Oc1cccc2c1C(=O)N(CSc1nnnn1-c1ccccc1)S2(=O)=O |  | 8900 M⁻¹ s⁻¹ | 0.00016 s⁻¹
O=C1c2ccccc2S(=O)(=O)N1CSc1nnnn1C1CCCCC1 |  | 2500 M⁻¹ s⁻¹ | 0.0001 s⁻¹
O=C1c2c(-c3ccccc3)cccc2S(=O)(=O)N1CSc1nnnn1-c1ccccc1 |  | 5800 M⁻¹ s⁻¹ | 0.0005 s⁻¹
O=C1c2c(Br)cccc2S(=O)(=O)N1CSc1nnnn1-c1ccccc1 |  |  | 0.00036 s⁻¹
CCOc1cccc2c1C(=O)N(CSc1nnnn1-c1ccccc1)S2(=O)=O |  | 45300 M⁻¹ s⁻¹ | 0.00014 s⁻¹
Cn1nnnc1SCN1C(=O)c2ccccc2S1(=O)=O |  | 1000 M⁻¹ s⁻¹ | 0.0001 s⁻¹
Cn1cnnc1SCN1C(=O)c2ccccc2S1(=O)=O |  | 190 M⁻¹ s⁻¹ | 4.7e-05 s⁻¹
CC(=O)OCN1C(=O)c2ccccc2S1(=O)=O |  | 630 M⁻¹ s⁻¹ | 0.0001 s⁻¹
